For 39 compounds, residual activity results are on record in ChEMBL document CHEMBL3039007, “Structure-based identification of OATP1B1/3 inhibitors” (Mol Pharmacol, 2013).

Data set [1] addresses T1, Solute carrier organic anion transporter family member 1B3 (Homo sapiens, UniProt Q9NPD5).
T1 sequence (Q9NPD5 whole entry): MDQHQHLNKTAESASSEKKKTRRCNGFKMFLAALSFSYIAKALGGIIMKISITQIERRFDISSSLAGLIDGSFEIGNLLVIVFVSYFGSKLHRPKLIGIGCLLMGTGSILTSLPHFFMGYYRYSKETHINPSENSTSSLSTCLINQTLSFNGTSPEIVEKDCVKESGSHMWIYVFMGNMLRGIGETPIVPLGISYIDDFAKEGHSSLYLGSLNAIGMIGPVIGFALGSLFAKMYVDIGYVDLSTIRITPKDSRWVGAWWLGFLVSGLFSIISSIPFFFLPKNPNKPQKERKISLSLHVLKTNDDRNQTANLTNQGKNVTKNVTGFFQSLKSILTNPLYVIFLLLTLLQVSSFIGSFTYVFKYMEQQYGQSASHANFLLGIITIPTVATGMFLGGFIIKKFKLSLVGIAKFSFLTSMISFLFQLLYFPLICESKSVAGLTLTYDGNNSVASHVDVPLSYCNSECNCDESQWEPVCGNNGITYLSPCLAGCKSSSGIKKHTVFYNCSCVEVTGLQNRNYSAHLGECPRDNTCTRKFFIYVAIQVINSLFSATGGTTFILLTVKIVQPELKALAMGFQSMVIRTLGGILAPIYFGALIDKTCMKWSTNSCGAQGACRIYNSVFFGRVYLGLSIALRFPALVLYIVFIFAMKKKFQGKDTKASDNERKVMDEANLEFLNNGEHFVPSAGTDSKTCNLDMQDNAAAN
The following applies: chinese hamster, cho, 10 µM.

Data set [2] has as its target T2, Solute carrier organic anion transporter family member 1B1 (Homo sapiens, UniProt Q9Y6L6).
T2 sequence (Q9Y6L6 whole entry): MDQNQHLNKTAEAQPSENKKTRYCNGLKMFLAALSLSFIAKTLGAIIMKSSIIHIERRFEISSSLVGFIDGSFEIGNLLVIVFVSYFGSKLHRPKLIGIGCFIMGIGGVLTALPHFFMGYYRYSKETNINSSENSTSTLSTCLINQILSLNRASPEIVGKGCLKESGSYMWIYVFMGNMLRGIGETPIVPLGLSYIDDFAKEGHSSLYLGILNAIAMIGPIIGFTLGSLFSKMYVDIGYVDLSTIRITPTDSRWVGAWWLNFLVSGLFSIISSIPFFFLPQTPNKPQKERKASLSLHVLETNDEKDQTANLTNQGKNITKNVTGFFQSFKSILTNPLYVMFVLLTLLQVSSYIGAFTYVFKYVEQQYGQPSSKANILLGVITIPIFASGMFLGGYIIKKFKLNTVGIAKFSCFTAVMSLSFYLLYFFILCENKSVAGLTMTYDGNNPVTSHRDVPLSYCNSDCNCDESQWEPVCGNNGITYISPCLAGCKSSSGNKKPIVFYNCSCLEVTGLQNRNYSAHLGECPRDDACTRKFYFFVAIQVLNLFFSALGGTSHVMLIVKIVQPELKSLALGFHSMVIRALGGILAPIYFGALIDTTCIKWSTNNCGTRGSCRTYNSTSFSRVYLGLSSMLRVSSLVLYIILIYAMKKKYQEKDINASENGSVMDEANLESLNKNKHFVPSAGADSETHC
The following applies: chinese hamster, cho, 10 µM.

Molecules are shown by their SMILES. Where a name gives a salt, the structure may show the parent alone.

On to `C=C(C)[C@@H]1CC[C@]2(C(=O)O)CC[C@]3(C)[C@H](CC[C@@H]4[C@@]5(C)CC[C@H](O)C(C)(C)[C@@H]5CC[C@]43C)[C@@H]12` [BETULINIC ACID], for which the results for the residual activity in data set [1] and in data set [2] were 38.62% and 25.94%, respectively.
The corresponding values for `C=C(C)[C@@H]1CC[C@]2(CO)CC[C@]3(C)[C@H](CC[C@@H]4[C@@]5(C)CC[C@H](O)C(C)(C)[C@@H]5CC[C@]43C)[C@@H]12` [BETULIN] are 92.43% and 106.3%.
On to `CC(C)(Oc1ccc(CCNC(=O)c2ccc(Cl)cc2)cc1)C(=O)O` [BEZAFIBRATE], for which the residual activity (usually the signal under treatment as a percentage of the control signal) is given as 74.47% in data set [1] and 72.82% in data set [2].
For `c1ccc(-c2ccc(C(c3ccccc3)n3ccnc3)cc2)cc1` (stereo not drawn) [BIFONAZOLE], the values for the residual activity in data set [1] and in data set [2] were 115.7% and 121.1%, respectively.
The corresponding values for `COc1ccc(-c2coc3cc(OC)cc(OC)c3c2=O)cc1` [BIOCHANIN A, DIMETHYL ETHER] are 81.69% and 100.7%.
The corresponding values for `COc1ccc(-c2coc3cc(O)cc(O)c3c2=O)cc1` [BIOCHANIN] are 113.5% and 98.38%.
On the same counts, the results for `O=C(O)CCCC[C@@H]1SC[C@@H]2NC(=O)N[C@@H]21` [BIOTIN] are 96.7% and 93.06%.
For `CC(=O)O[C@@](C)(CCC=C(C)C)C1CC=C(C)CC1` (stereo partly drawn) [BISABOLOL ACETATE], the residual activity was 92.66% in data set [1] and 80.65% in data set [2].
For `CC(=O)Oc1ccc(C(c2ccc(OC(C)=O)cc2)c2ccccn2)cc1` [BISACODYL], the residual activity in data set [1] was determined as 103.3%; in data set [2], 97.08%.
On the same counts, the results for `CCc1ccc2c(O)c3c(cc2c1C(=O)OC)C(=O)c1c(O)ccc(O)c1C3=O` [BISANHYDRORUTILANTINONE] are 115.2% and 104.1%.
On the same counts, the results for `O=C(/C=C/C(=O)Oc1ccccc1C(=O)O)Oc1ccccc1C(=O)O` [BISSALICYL FUMARATE] are 99.92% and 104.8%.
Consider `COc1cc2c(cc1O)C[C@H]1c3c(cc(O)c(OC)c3-2)CCN1C` [BOLDINE], for which the residual activity in data set [1] came to 100.1%; in data set [2] it was 47.95%.
Take `O=C1C=C2CC3(O)COc4cc(O)ccc4C3=C2C=C1O` (stereo not drawn) [BRAZILEIN]: the residual activity is on record as 95.51% in data set [1] and 96.33% in data set [2].
On to `Oc1ccc2c(c1)OC[C@]1(O)Cc3cc(O)c(O)cc3[C@H]21` [BRAZILIN], for which the residual activity is on record as 101.4% in data set [1] and 117.2% in data set [2].
On the same counts, the results for `CC(=O)[C@H]1CC[C@H]2[C@@H]3CC[C@H]4C[C@H](O)CC[C@]4(C)[C@H]3CC[C@]12C` [BREXANOLONE] are 89.68% and 41.5%.
The corresponding values for `CN(Cc1cc(Br)cc(Br)c1N)C1CCCCC1.Cl` [BROMHEXINE HYDROCHLORIDE] are 95.98% and 103.1%.
On the same counts, the results for `CC1(C)CC2C1CC[C@]1(CBr)CCC3C(CC(=O)O)C(=O)O[C@@]32C1` (stereo partly drawn) [BROMO-3-HYDROXY-4-(SUCCIN-2-YL)-CARYOLANE gamma-LACTONE] are 50.1% and 26.83%.
As for `CC(C)C[C@H]1C(=O)N2CCC[C@H]2[C@]2(O)O[C@](NC(=O)[C@@H]3C=C4c5cccc6[nH]c(Br)c(c56)C[C@H]4N(C)C3)(C(C)C)C(=O)N12.CS(=O)(=O)O` [BROMOCRIPTINE MESYLATE], the values for the residual activity in data set [1] and in data set [2] were 84.69% and 67.37%, respectively.
On the same counts, the results for `CN(C)CCC(c1ccc(Br)cc1)c1ccccn1.O=C(O)/C=C\C(=O)O` (stereo not drawn) [BROMPHENIRAMINE MALEATE] are 90.7% and 88.52%.
The corresponding values for `Oc1c(Br)cc(Br)c2cccnc12` [BROXYQUINOLINE] are 75.68% and 57.32%.
For `COc1cc2c(cc1OC)[C@@]13CCN4CC5=CCO[C@H]6CC(=O)N2[C@H]1[C@H]6[C@H]5C[C@H]43` [BRUCINE], the residual activity is listed as 229.8% in data set [1] and 117.9% in data set [2].
`CCCC(=O)Nc1ncnc2c1ncn2[C@@H]1O[C@@H]2COP(=O)(O)O[C@H]2[C@H]1OC(=O)CCC` [BUCLADESINE]: the residual activity is 88.95% in data set [1] and 116% in data set [2].
In the case of `COc1ccc(-c2cc(=O)c3c(O)cc(O[C@H]4O[C@H](CO[C@@H]5O[C@@H](C)[C@H](O)[C@@H](O)[C@H]5O)[C@@H](O)[C@H](O)[C@H]4O)cc3o2)cc1` [BUDDLEOFLAVONOLOSIDE], the residual activity in data set [1] was found to be 212.4%; in data set [2] it was 69.14%.
The corresponding values for `CCCC1O[C@@H]2C[C@H]3[C@@H]4CCC5=CC(=O)C=C[C@]5(C)[C@H]4[C@@H](O)C[C@]3(C)[C@]2(C(=O)CO)O1` (stereo partly drawn) [BUDESONIDE] are 73% and 43.76%.
The corresponding values for `CCCCOc1ccc(CC(=O)NO)cc1` [BUFEXAMAC] are 92.18% and 89.04%.
On the same counts, the results for `CCCCN1CCCCC1C(=O)Nc1c(C)cccc1C.Cl` (stereo not drawn) [BUPIVACAINE HYDROCHLORIDE] are 94.2% and 97.15%.
Take `CS(=O)(=O)OCCCCOS(C)(=O)=O` [BUSULFAN]: the residual activity in data set [1] stood at 98.16%; in data set [2], 113.7%.
On the same counts, the results for `CCCCN(CCCC)CCCOC(=O)c1ccc(N)cc1` [BUTACAINE] are 114.4% and 93.87%.
`CCCCOC(=O)c1ccc(N)cc1` [BUTAMBEN]: the residual activity in data set [1] was found to be 124.9%; in data set [2], 159.2%.
The corresponding values for `CCC[C@H]1CC2=C(C[C@@H](CC)CC3=C1C(=O)OC3=O)C(=O)OC2=O` [BYSSOCHLAMIC ACID] are 102.5% and 87.32%.
The corresponding values for `CC(=O)OC[C@@]1(O)C[C@@]23CC[C@@H]4c5ccoc5CC[C@@]4(C)[C@@H]2CC[C@@H]1C3` [CAFESTOL ACETATE] are 89.68% and 108.6%.
On the same counts, the results for `O=C(/C=C/c1ccc(O)c(O)c1)OCCc1ccccc1` [CAFFEIC ACID PHENETHYL ESTER] are 143.5% and 254%.
As for `O=C(O)/C=C/c1ccc(O)c(O)c1` [CAFFEIC ACID], the residual activity in data set [1] was 94%; in data set [2] it was 69.6%.
The corresponding values for `Cn1c(=O)c2c(ncn2C)n(C)c1=O` [CAFFEINE] are 90.35% and 103.6%.
In the case of `CC[C@@]1(O)C(=O)OCc2c1cc1n(c2=O)Cc2cc3ccccc3nc2-1` [CAMPTOTHECIN], the residual activity in data set [1] amounted to 107.3%; in data set [2] it was 74.81%.
The corresponding values for `N=C(N)NOCC[C@H](N)C(=O)O` [CANAVANINE] are 91.69% and 101.6%.
`CCOc1nc2cccc(C(=O)OC(C)OC(=O)OC3CCCCC3)c2n1Cc1ccc(-c2ccccc2-c2nnn[nH]2)cc1` (stereo not drawn) [CANDESARTAN CILEXETIL]: the figures for the residual activity in data set [1] and in data set [2] were 5.967% and 10.55%, respectively.
The corresponding values for `C[C@]12CCC(=O)C=C1C=C[C@@H]1[C@@H]2CC[C@@]2(C)[C@H]1CC[C@@]21CCC(=O)O1` [CANRENONE] are 78.65% and 32.01%.
The corresponding values for `C[C@@]12C(=O)OC(=O)[C@]1(C)[C@H]1CC[C@@H]2O1` [CANTHARIDIN] are 105.7% and 102.5%.
